Experimental data as given in patent US7129208B2, “Synthetic ion channels” (Washington University, priority 2002, dated 2006).
“And” between values parts separate entries of the source, which are not always exact repeats. Identical values can stand only once. The star is where a group is joined. (C18H37)2NCOCH2OCH2CO = CCCCCCCCCCCCCCCCCCN(CCCCCCCCCCCCCCCCCC)C(=O)COCC(=O)*; OBn = c1ccc(CO*)cc1

How the values were obtained:
[1] = Chloride release from liposomes (chloride-specific electrode); assay type: biochemical; conditions: for chloride release / efflux from liposomes: unilamellar liposomes 182±12 nm
Experimental: Liposomes were prepared by reverse-phase evaporation^26 as previously reported.^27 Cl^− release was determined with a resin, chloride-specific electrode. Ion transport, mediated by (C18H37)2NCOCH2OCH2CO-GGGPGGG-OCH2Ph (SEQ ID NO.: 2), was studied in unilamellar liposomes of 182±12 nm average dimension. […] Neither the anchor-GGGLGGG (SEQ ID NO.: 3) compound nor the anchor-GGG compound retains the kink believed to be present in (C18H37)2NCOCH2OCH2CO-GGGPGGG-OCH2Ph (SEQ ID NO.: 2) owing to the presence of the proline residue.
Substituting an impermeant external ion (SO4^=) for a permeant one (NO3^−) will generate a membrane potential that inhibits Cl^− release. Thus, replacing nitrate by sulfate in the aqueous medium produced a 5-fold reduction in chloride efflux (data not shown).

RAW 264.7 cells [2] = experiment: Cell volume regulation in a monocytic cell line (optical sections)
Experimental: We determined cell volume from 0.5 micron image stacks collected at 30 second intervals and calculated the time-dependent volume changes that are shown in FIG. 7B. […] RAW 264.7 cells (American Type Culture Collection, Manassas Va.) were plated into microscope chambers in Dulbeccos Minimal Essential Media with antibiotics and 10% fetal calf serum and allowed to recover over night at 5% CO2. Prior to experiment they were transferred to Hanks buffered saline (10 mM HEPES, pH 7.0) and placed into the thermostated microscope stage (37° C.) and permitted to equilibrate for 10 min. Cell volume was monitored and corrected for changes in cell geometry by optical sections at 0.5 micron steps from the glass surface to the top of the cell (typically 5–7 sections). Images were collected using a Zeiss 100 M Axovert microscope, a 12-bit Sensi-Cam, and analyzed using Slidebook 3.0 (Intelligent Imaging Innovations, Inc. Cambridge, Mass.). Cell volume was calculated by summing the intracellular surface for each image in the stack of sections. […] In FIG. 7B the cellular volume changes were followed by comparing sequential series of z-stacks from optical sections and normalized to total cell volume at the beginning of the experiment (t=0). […] Intracellular calcium was followed using Fura-2 fluorescence ratio method. […] Depolarization dependent increase in cytosolic calcium was initiated by the switch to 100 mM KCl at 200 seconds (open triangle).

[3] = Pore size from molecular models and bilayer conductance data
RAW 264.7 cells [4] = experiment: Intracellular calcium, Fura-2 fluorescence ratio method; conditions: 46 μM or 92 μM applied at time zero
Experimental: We determined cell volume from 0.5 micron image stacks collected at 30 second intervals and calculated the time-dependent volume changes that are shown in FIG. 7B. […] RAW 264.7 cells (American Type Culture Collection, Manassas Va.) were plated into microscope chambers in Dulbeccos Minimal Essential Media with antibiotics and 10% fetal calf serum and allowed to recover over night at 5% CO2. Prior to experiment they were transferred to Hanks buffered saline (10 mM HEPES, pH 7.0) and placed into the thermostated microscope stage (37° C.) and permitted to equilibrate for 10 min. Cell volume was monitored and corrected for changes in cell geometry by optical sections at 0.5 micron steps from the glass surface to the top of the cell (typically 5–7 sections). Images were collected using a Zeiss 100 M Axovert microscope, a 12-bit Sensi-Cam, and analyzed using Slidebook 3.0 (Intelligent Imaging Innovations, Inc. Cambridge, Mass.). Cell volume was calculated by summing the intracellular surface for each image in the stack of sections. […] In FIG. 7B the cellular volume changes were followed by comparing sequential series of z-stacks from optical sections and normalized to total cell volume at the beginning of the experiment (t=0). […] Intracellular calcium was followed using Fura-2 fluorescence ratio method. […]

[5] = Voltage clamp in planar lipid bilayers; assay type: biochemical; conditions: for maximum conductance (chloride diffusion pathway): linear current-voltage relationship, 63 μM in b201
Experimental: The chloride selectivity of (C18H37)2NCOCH2OCH2CO-GGGPGGG-OCH2Ph (SEQ ID NO.: 2) was assessed by voltage clamp methods in planar phospholipid bilayers. Addition of (C18H37)2NCOCH2OCH2CO-GGGPGGG-OCH2Ph (SEQ ID NO.: 2) to planar bilayer lipids produced large currents within seconds in a 450:150 mM KCl ion gradient. The sign and the magnitude of this current indicated Cl^− transport by a nanoSiemen-sized channel. A linear current-voltage relationship gave a maximum conductance of 1.3±0.1 nS. The reversal potential, Erev, was 28±0.45 mV, corresponding to the calculated chloride Nernst potential, ECl, of 28.2 mV. This confirms the >10:1 Cl^−/K^+ selectivity observed in liposomes. The ion selectivity and conductivity indicate that (C18H37)2NCOCH2OCH2CO-GGGPGGG-OCH2Ph (SEQ ID NO.: 2) forms a large, stable, anion selective aqueous pore in bilayer membranes.
Planar lipid bilayers were formed by standard methods. (C18H37)2NCOCH2OCH2CO-GGGPGGG-OCH2Ph (SEQ ID NO.: 2) was applied to the cis chamber at 60 μM (micromolar) with a 450 mM/150 mM KCl gradient present across the membrane. Seconds later Cl^− currents appeared and voltage was varied from +20 to −2 mV. Fractional open time was computed using the computer programs Fetchan and pStat (Axon Instruments, CA).
The chloride selectivity of (C18H37)2NCOCH2OCH2CO-GGG-P-GGG-OCH2Ph (SEQ ID NO.: 2) was assessed by voltage clamp methods in planar lipid bilayers prepared as described in P. Schlesinger, et al., Proc. Natl. Acad. Sci. 94, 11357 (1997). The addition of 63 μM (C18H37)2NCOCH2OCH2CO-GGG-P-GGG-OCH2Ph (SEQ ID NO.: 2) produced large currents within seconds in a 450:150 mM KCl ion gradient (FIG. 8a). […] The reversal potential, Erev, was 28±0.45 mV, corresponding to the calculated chloride Nernst potential, ECl, of 28.2 mV (FIG. 8c). This confirms the >10:1 Cl^−/K^+ selectivity observed in liposomes. The ion selectivity and conductivity indicate that (C18H37)2NCOCH2OCH2CO-GGG-P-GGG-OCH2Ph (SEQ ID NO.: 2) forms a large, stable, anion selective aqueous pore in bilayer membranes.

[6] = Carboxyfluorescein fluorescence dequenching: pore activation and size, dextran block; assay type: biochemical
Experimental: Fluorescence dequenching was used to study pore activation and size as previously described in Saito et al. CF dequenching reflects the kinetics of pore activation and dequenching is accurately fit by this equation. Ft=F0+A1(1−e^−(t/τ))+mt
This exponential model requires that the concentration dependence of quenching will reflect the molecularity of pore activation (FIG. 9a, 9b). […] We infer therefore that at ˜100 μM, the active pore involves two molecules of (C18H37)2NCOCH2OCH2CO-GGG-P-GGG-OCH2Ph (SEQ ID NO.: 2). […] Size-specific dextran block (using ˜6–26 Å diameter molecules) confirmed an apparent pore diameter of 6.6 A (FIG. 9d, 9e) (M. Saito, S. J. Korsmeyer, P. H. Schlesinger, Nature Cell Biology, 553 (2000); S. Rex, G. Schwarz, Biochemistry37, 2336 (1998)).

Compound: (C18H37)2NCOCH2OCH2CO-Gly-Gly-Gly-OCH2Ph [(C18H37)2NCOCH2OCH2CO-GGG-OCH2Ph]
- reduction of Cl- release ([1]; compared with the GGGPGGG compound): 6 fold

Compound: (C18H37)2NCOCH2OCH2CO-Gly-Gly-Gly-Pro-Gly-Gly-Gly-OCH2Ph ({(C18H37)2NCOCH2OCH2CO}-GGGPGGG-OBn; SMILES CCCCCCCCCCCCCCCCCCN(CCCCCCCCCCCCCCCCCC)C(=O)COCC(=O)NCC(=O)NCC(=O)NCC(=O)N1CCC[C@H]1C(=O)NCC(=O)NCC(=O)NCC(=O)OCc1ccccc1) [(C18H37)2NCOCH2OCH2CO-GGGPGGG-OCH2Ph]
- reduction in chloride efflux on replacing nitrate by sulfate in the aqueous medium ([1]; external SO4 instead of NO3, data not shown): 5 fold
- chloride release / efflux from liposomes [1]: rapid, concentration dependent, and went to completion
- cell volume decrease (RAW 264.7 cells [2]; 46 μM added at t=0, normalized to total cell volume at t=0): 20% and 20±0.5%
- extent of cell volume decrease, of the initial cell volume (RAW 264.7 cells [2]; 100 μM): 20–25%
- effect on cellular volume (RAW 264.7 cells [2]; mammalian cells): modulates cellular volume
- pore size ([3]; molecular models, conductance data and dextran block taken together): 6–8 Å
- pore diameter ([3]; suggested by molecular models and bilayer conductance data): 6.5–8 Å
- change in cytosolic calcium (RAW 264.7 cells [4]): small increases
- voltage dependent gating ([5]; 60 μM in cis chamber, 450 mM/150 mM KCl gradient, voltage +20 to -2 mV): voltage dependent gating
- reversal potential, Erev ([5]; 450:150 mM KCl ion gradient, calculated chloride Nernst potential 28.2 mV): 28±0.45 mV
- maximum conductance (chloride diffusion pathway) ([5]; 450:150 mM KCl ion gradient): 1.3±0.1 nS
- maximum conductance (chloride diffusion pathway) ([5]; 450:150 mM KCl ion gradient, listed as (C18H37)2NCOCH2OCH2CO-GGG-P-GGG-OCH2Ph): 1.3±0.01 nS
- molecules in the active pore ([6]; at ~100 μM, inferred): two
- apparent pore diameter ([6]; size-specific dextran block, ~6–26 Å diameter molecules): 6.6 A

Compound: (H37C18)2NCOCH2OCH2CO-Gly-Gly-Gly-Leu-Gly-Gly-Gly-OCH2Ph ({(H37C18)2NCOCH2OCH2CO}-GGGLGGG-OBn) [anchor-GGGLGGG]
- chloride release / efflux from liposomes [1]: dramatically reduced

Compound: CC(C)[C@@H]1NC(=O)[C@H](C)OC(=O)[C@@H](C(C)C)NC(=O)[C@@H](C(C)C)OC(=O)[C@H](C(C)C)NC(=O)[C@H](C)OC(=O)[C@@H](C(C)C)NC(=O)[C@@H](C(C)C)OC(=O)[C@H](C(C)C)NC(=O)[C@H](C)OC(=O)[C@@H](C(C)C)NC(=O)[C@@H](C(C)C)OC1=O [valinomycin, reference compound]
- effect on membrane potential inhibition of net chloride movement ([1]; added to liposomes with the channel compound in sulfate medium): permitted the remaining chloride to exit the liposomes
